The values that follow are results of earlier work, collected in PMC2365120, “Antitumour Metallocenes: Effect of DMSO on the Stability of Cp2TiX2 and Implications for Anticancer Activity” (Metal-Based Drugs, 1998).

Read-outs that look alike come from different tables or passages of the source.

For data set [1] the following is noted: samples administered in 10%DMSO/saline.
The conditions of data set [2]: for % Cp hydrolysis: Table 3, D2O (pD ~2-3), reaction time 24 h.
The test system of data set [3] is fluid Ehrlich ascites tumour. The note with it: for Optimum Cure Rate (%) / Optimum dose range: fluid Ehrlich ascites tumour, samples administered in 10%DMSO/saline.

As for `[Cl-].[Cl-].[Ti+4].c1cc[cH-]c1.c1cc[cH-]c1` [Compound 1, Titanocene dichloride, reference compound], the LD50 in data set [1] (Table 1, Cp2TiX2) is listed as 100 mg/kg. In addition, in data set [2], the “% Cp hydrolysis” value is given as 0%. The “Time the Cp rings remain metal bound” value in data set [2] (in water, low pH after halide hydrolysis) was “over 24 h”. For the same compound, in data set [3] (Table 1, Cp2TiX2), the “Optimum Cure Rate (%)” value is listed as 100% and the Optimum dose range was 40-60 mg/kcj.
In the case of `[F][Ti+2][F].c1cc[cH-]c1.c1cc[cH-]c1` [Compound 2], the LD50 in data set [1] (Table 1, Cp2TiX2) is reported as 60 mg/kg. Further, in data set [3] (Table 1, Cp2TiX2), the “Optimum Cure Rate (%)” value was 100% and the Optimum dose range is recorded as 40 mg/kcj.
Take `[Br][Ti+2][Br].c1cc[cH-]c1.c1cc[cH-]c1` [Compound 3]: the LD50 in data set [1] (Table 1, Cp2TiX2) was 135 mg/kg. Further, the “Optimum Cure Rate (%)” value in data set [3] (Table 1, Cp2TiX2) is reported as 100%.
Take `[I][Ti+2][I].c1cc[cH-]c1.c1cc[cH-]c1` [Compound 4]: in data set [1] (Table 1, Cp2TiX2), the LD50 is 145 mg/kg. For the same compound, in data set [3] (Table 1, Cp2TiX2), the “Optimum Cure Rate (%)” value is on record as 100% and the Optimum dose range is 60-100 mg/kcj.
On to `S=C=[N][Ti+2][N]=C=S.c1cc[cH-]c1.c1cc[cH-]c1` [Compound 5], for which, in data set [1] (Table 1, Cp2TiX2), the LD50 was 135 mg/kg. Besides, in data set [3] (Table 1, Cp2TiX2), the “Optimum Cure Rate (%)” value is 100% and the Optimum dose range was 80 mg/kcj.
For the compound `O=C(O)C(Cl)(Cl)Cl.O=C(O)C(Cl)(Cl)Cl.[Ti+2].c1cc[cH-]c1.c1cc[cH-]c1` [Compound 8, titanocene bis(trichloroacetate)], the Aqueous solubility result was “poor”. Moreover, in data set [1] (Table 1, Cp2TiX2), the LD50 is 440 mg/kg. In data set [3] (Table 1, Cp2TiX2), the “Optimum Cure Rate (%)” value was 100% and the Optimum dose range was 100-360 mg/kcj.
For the compound `O=C(O)/C=C\C(=O)[O][Ti+2][O]C(=O)/C=C\C(=O)O.c1cc[cH-]c1.c1cc[cH-]c1` [Compound 9], the Aqueous solubility entry is listed as “increase in aqueous solubility”. Also, the LD50 in data set [1] (Table 1, Cp2TiX2) is reported as 170 mg/kg. For the same compound, in data set [3] (Table 1, Cp2TiX2), the “Optimum Cure Rate (%)” value is reported as 100% and the Optimum dose range is reported as 60-120 mg/kcj.
As for `O=[N+]([O-])c1ccc([O][Ti+2][O]c2ccc([N+](=O)[O-])cc2)cc1.c1cc[cH-]c1.c1cc[cH-]c1` [Compound 10], the LD50 in data set [1] (Table 1, Cp2TiX2) is on record as 260 mg/kg. Further, in data set [3] (Table 1, Cp2TiX2), the “Optimum Cure Rate (%)” value was 10% and the Optimum dose range is given as 180-240 mg/kcj.
Consider `Fc1c(F)c(F)c([O][Ti+2][O]c2c(F)c(F)c(F)c(F)c2F)c(F)c1F.c1cc[cH-]c1.c1cc[cH-]c1` [Compound 11], for which the LD50 in data set [1] (Table 1, Cp2TiX2) is listed as 480 mg/kg. In addition, in data set [3] (Table 1, Cp2TiX2), the “Optimum Cure Rate (%)” value was 100% and the Optimum dose range is recorded as 340-360 mg/kcj.
`Fc1c(F)c(F)c([S][Ti+2][S]c2c(F)c(F)c(F)c(F)c2F)c(F)c1F.c1cc[cH-]c1.c1cc[cH-]c1` [Compound 12]: the LD50 in data set [1] (Table 1, Cp2TiX2) is given as 260 mg/kg. In data set [3] (Table 1, Cp2TiX2), the “Optimum Cure Rate (%)” value is 100% and the Optimum dose range is 120-180 mg/kcj.
As to `[Cl-].[Cl-].[NH3+]CC(=O)[O][Ti+2][O]C(=O)C[NH3+].c1cc[cH-]c1.c1cc[cH-]c1` [Compound 13, titanocene bis(glycine)], the LD50 in data set [1] (Table 1, Cp2TiX2) was above 160 mg/kg. In addition, the “% Cp hydrolysis” value in data set [2] is recorded as below 2%. Besides, in data set [3] (Table 1, Cp2TiX2), the “Optimum Cure Rate (%)” value is recorded as 50%.
`C[C@H]([NH3+])C(=O)[O][Ti+2][O]C(=O)[C@H](C)[NH3+].[Cl-].[Cl-].c1cc[cH-]c1.c1cc[cH-]c1` [Compound 14]: the Aqueous solubility entry is on record as “highly water soluble”. Besides, the LD50 in data set [1] (Table 1, Cp2TiX2) is recorded as 185 mg/kg. Further, in data set [3] (Table 1, Cp2TiX2), the “Optimum Cure Rate (%)” value is 50% and the Optimum dose range is recorded as 160 mg/kcj.
As to `[Cl][Ti+2][O]c1ccc(Cl)c(Cl)c1Cl.c1cc[cH-]c1.c1cc[cH-]c1` [Compound 15], the LD50 in data set [1] (Table 2, Cp2TiClX) is listed as 200 mg/kg. Besides, in data set [3] (Table 2, Cp2TiClX), the “Optimum Cure Rate (%)” value is on record as 50% and the Optimum dose range was 60 to 140 mg/kg.
With `Cc1ccccc1[S][Ti+2][Cl].c1cc[cH-]c1.c1cc[cH-]c1` [Compound 16], in data set [3] (Table 2, Cp2TiClX), the “Optimum Cure Rate (%)” value is reported as 25% and the Optimum dose range was 30 to 60 mg/kg.
Regarding `Nc1ccccc1[S][Ti+2][Cl].c1cc[cH-]c1.c1cc[cH-]c1` [Compound 17], the LD50 in data set [1] (Table 2, Cp2TiClX) was 100 mg/kg. In data set [3] (Table 2, Cp2TiClX), the “Optimum Cure Rate (%)” value is listed as 13%.
`[Cl][Ti+]([Cl])[Cl].c1cc[cH-]c1` [CpTiCI3, reference compound]: the Antitumour activity entry in data set [3] (partially hydrolysed derivative lacking one Cp ring) was “reduced activity”.

By LD50 is commonly meant the dose expected to kill half of the subjects tested.
